Test results as given in ChEMBL document CHEMBL2034966, “Bidirectional fluorescence properties of pyrene-based peroxisome proliferator-activated receptor (PPAR) α/δ dual agonist” (Bioorg Med Chem, 2012).
Substitutions are numbered along the chain they refer to. Active and inactive are the calls of the source. No cut-off for these calls is given here.

Experiments:
[1] = molecular target: T1, Peroxisome proliferator-activated receptor alpha (Homo sapiens) (UniProt Q07869); experiment: Binding affinity to N-terminal His-tagged human PPARalpha ligand binding domain assessed as increase in fluorescence at 500 nM by fluorometry
T1 sequence (whole entry): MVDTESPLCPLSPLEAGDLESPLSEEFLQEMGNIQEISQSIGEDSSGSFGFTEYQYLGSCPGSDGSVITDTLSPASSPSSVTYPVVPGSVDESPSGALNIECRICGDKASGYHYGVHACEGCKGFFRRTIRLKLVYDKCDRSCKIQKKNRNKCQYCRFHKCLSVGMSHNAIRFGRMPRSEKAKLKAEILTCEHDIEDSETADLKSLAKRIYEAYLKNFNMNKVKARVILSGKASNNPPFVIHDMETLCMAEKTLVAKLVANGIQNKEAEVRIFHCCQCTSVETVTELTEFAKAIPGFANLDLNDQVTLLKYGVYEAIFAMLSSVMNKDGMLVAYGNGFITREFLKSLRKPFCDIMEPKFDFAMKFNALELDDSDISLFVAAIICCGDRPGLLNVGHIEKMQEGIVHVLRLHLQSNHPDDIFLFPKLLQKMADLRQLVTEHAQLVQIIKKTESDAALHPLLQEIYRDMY

[2] = molecular target: T2, Peroxisome proliferator-activated receptor delta (Homo sapiens) (UniProt Q03181); experiment: Binding affinity to N-terminal His-tagged human PPARdelta ligand binding domain assessed as decrease in fluorescence at 500 nM by fluorometry
T2 sequence (whole entry): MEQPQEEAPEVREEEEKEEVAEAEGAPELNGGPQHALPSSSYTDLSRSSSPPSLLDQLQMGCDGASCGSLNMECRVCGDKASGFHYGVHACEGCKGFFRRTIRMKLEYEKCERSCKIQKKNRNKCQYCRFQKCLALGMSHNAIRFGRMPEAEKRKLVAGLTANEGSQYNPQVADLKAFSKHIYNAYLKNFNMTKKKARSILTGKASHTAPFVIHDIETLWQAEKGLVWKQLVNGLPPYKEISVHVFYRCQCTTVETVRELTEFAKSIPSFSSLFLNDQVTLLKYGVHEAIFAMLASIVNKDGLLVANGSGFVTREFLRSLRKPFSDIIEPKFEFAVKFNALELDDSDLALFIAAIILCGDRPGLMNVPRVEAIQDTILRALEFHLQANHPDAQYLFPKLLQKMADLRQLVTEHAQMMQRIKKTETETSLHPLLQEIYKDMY

[3] = species: Homo sapiens; experiment: Binding affinity to N-terminal His-tagged human PPARdelta W264L mutant ligand binding domain assessed as increase in fluorescence at 500 nM by fluorometry
[4] = species: Homo sapiens; experiment: Binding affinity to N-terminal His-tagged human PPARdelta W264A mutant ligand binding domain assessed as increase in fluorescence at 500 nM by fluorometry
[5] = species: Homo sapiens; experiment: Binding affinity to N-terminal His-tagged human PPARdelta W256A mutant ligand binding domain assessed as increase in fluorescence at 500 nM by fluorometry
[6] = species: Homo sapiens; experiment: Binding affinity to N-terminal His-tagged human PPARdelta W225A mutant ligand binding domain assessed as decrease in fluorescence at 500 nM by fluorometry
[7] = tested on: T3, Peroxisome proliferator-activated receptor alpha (Homo sapiens), Q07869 [L258W]; experiment: Binding affinity to N-terminal His-tagged human PPARalpha L258W mutant ligand binding domain assessed as increase in fluorescence at 500 nM by fluorometry
T3 sequence (whole entry): T1 sequence (whole entry) with L258W

CC[C@@H](Cc1ccc(OC)c(CNC(=O)c2ccc3ccc4cccc5ccc2c3c45)c1)C(=O)O
Activity [1]: Active
Activity [2]: Active
Activity [3]: Active
Activity [4]: Active
Activity [5]: inactive
Activity [6]: Active
Activity [7]: inactive
